Patent publication US20040087558A1, “Methods of using and compositions comprising selective cytokine inhibitory drugs for treatment, modification and management of pain” (priority 2002, published 2004)

Key:
[1] = Clinical study in pain patients with upper extremity CRPS; assay type: in vivo, human; settings: 1,200 mg as a continuous oral daily dose
Experimental: Selective cytokine inhibitory drugs of the invention such as 3-(3,4-dimethoxy-phenyl)-3-(1-oxo-1,3-dihydro-isoindol-2-yl)-propionamide are administered in an amount of 400 to 1,200 mg per day to patients with pain syndromes for three to six months. A baseline evaluation is performed for the effect of the drug treatment on pain intensity, impact of pain on activities of daily living, and consumption of other pain medications.
In a specific embodiment, clinical studies are performed in pain patients who have upper extremity CRPS that has not responded to conventional physical therapy and has been present for at least one year. In the early course of their diseases, patients have clear evidence of autonomic dysfunction with formal autonomic testing (Quantitative sudomotor axon reflex test (QSART), resting sweat output, and thermography). If this is unavailable, documentation of clinical signs indicates autonomic dysfunction (changes in hydration, temperature, skin, nail or hair growth) along with symptoms of allodynia and swelling. […] Responses are assessed using standard pain scales, e.g., Numeric Pain Scale Assessment (VAS) for pain, quality of life using the McGill Index and objective signs in clinical examination such as a visible reduction of swelling, sweating, discolorations in skin color, temperature changes, changes in skin, hair and nail growth, and fine motor movements. […]

TNF-α production = assay: Inhibition of TNF-α production following LPS-stimulation of human PBMC and human whole blood; assay type: cell-based; settings: in vitro studies; compared with thalidomide
Experimental: In a specific embodiment, the pharmacological properties of 3-(3,4-dimethoxy-phenyl)-3-(1-oxo-1,3-dihydro-isoindol-2-yl)-propionamide are characterized in in vitro studies. Studies examine the effects of the compound on the production of various cytokines. Inhibition of TNF-α production following LPS-stimulation of human PBMC and human whole blood by the compound is investigated in vitro. The IC50's of the compound for inhibiting production of TNF-α are measured. […] The pharmacological effects of 3-(3,4-dimethoxy-phenyl)-3-(1-oxo-1,3-dihydro-isoindol-2-yl)-propionamide may derive from its action as an inhibitor of the generation of inflammatory cytokines.

[2] = Cardiovascular and respiratory function in anesthetized dogs; assay type: in vivo; settings: anesthetized Beagle dogs; ascending doses 400, 800 and 1,200 mg/kg/day by infusion through the jugular vein
Experimental: The effects of 3-(3,4-dimethoxy-phenyl)-3-(1-oxo-1,3-dihydro-isoindol-2-yl)-propionamide on cardiovascular and respiratory function are investigated in anesthetized dogs. Two groups of Beagle dogs (2/sex/group) are used. One group receives three doses of vehicle only and the other receives three ascending doses of 3-(3,4-dimethoxy-phenyl)-3-(1-oxo-1,3-dihydro-isoindol-2-yl)-propionamide (400, 800, and 1,200 mg/kg/day). In all cases, doses of 3-(3,4-dimethoxy-phenyl)-3-(1-oxo-1,3-dihydro-isoindol-2-yl)-propionamide or vehicle are successively administered via infusion through the jugular vein separated by intervals of at least 30 minutes.

[3] = 8 to 10 mg/kg i.p.; acute pain assays; cited from earlier work

SMILES	tolerability [1]	pharmacological activity profile, potency relative to thalidomide (TNF-α production)	cardiovascular and respiratory changes compared to the vehicle control group [2]	anti-nociceptive response [3]
COc1ccc(C(CC(N)=O)N2Cc3ccccc3C2=O)cc1OC (stereo not shown) [3-(3,4-dimethoxy-phenyl)-3-(1-oxo-1,3-dihydro-isoindol-2-yl)-propionamide]	well-tolerated	five to fifty	minimal at all doses	
CN1CC[C@]23c4c5ccc(O)c4O[C@H]2[C@@H](O)C=C[C@H]3[C@H]1C5 [morphine]				near-maximal anti-nociceptive response
